From patent US6706703B2, “Bis(5-aryl-2-pyridyl) derivatives” (Kowa Co., Ltd., priority 2001, dated 2004)
pIC50: −log10 of the molar value. Structures can show the parent of a compound that is named as a salt. Marks after values point to notes of the source that are not given here.

Assays:
IgE antibody production = experiment: Evaluation of IgE antibody production inhibiting activity (B cells + LPS + mouse IL-4, IgE in culture supernatant by ELISA); format: cell-based; conditions: B-cell, mouse (Balb/C) spleen B cells, LPS 1 day then mouse IL-4 6 days
Procedure: Test 1 (Evaluation of IgE Antibody Production Inhibiting Activity)
From a mouse (Balb/C, male, 8 weeks old), the spleen was enucleated. The spleen was shredded in 10% FEB/RPMI 1640, and was then disintegrated into single cells through a 70-mesh screen. Those single cells were hemolyzed with Gey's solution, and using RPMI 1640 medium/25 mM HEPES/0.3% BSA, a spleen cell suspension (1×10^7 cells/mL) was prepared. After an aliquot of the suspension was reacted with a rat anti-mouse Thy-1.2 monoclonal antibody (product of Cedarlane Laboratories Limited) at 4° C. for 1 hour, centrifugation was conducted. Precipitated cells were suspended again (1×10^7 cells/mL, RPMI/HEPES/BSA). After the suspension was next reacted with a low-cytotoxic rabbit complement (product of Cedarlane Laboratories Limited) at 37° C. for 1 hour, dead cells were removed by specific gravity centrifugation using Lympholyte M (product of Cedarlane Laboratories Limited) so that a B cell fraction was obtained as viable cells.
Using a 96-well plate, the B cells (2×10^5 cells/0.2 mL/well) were incubated together with LPS (E. coli 026:B6, product of DIFCO Laboratories, Inc.) for 1 day. Mouse IL-4 (product of Genzyme Corp.) was then added, followed by further incubation for 6 days.
The IgE antibody production inhibiting activity of each drug was calculated by adding the drug Day 1 of the incubation and assaying the quantity of IgE in the culture supernatant by ELISA after the incubation.

[1] = Solubility of each compound in water; format: physicochemical
Source text: Further, the solubility (%) of each compound in water was also estimated.

[2] = solubility in 0.1M hydrochloric acid (footnote *)

| pIC50 (IgE antibody production) | Water solubility ([1]; in water) [%] | Water solubility [1, 2] | SMILES |
| --- | --- | --- | --- |
| 6.52 | 5 |  | COc1cc(-c2ccc(N3CCCN(c4ccc(-c5cc(OC)c(N)c(OC)c5)cn4)CC3)nc2)cc(OC)c1N [Example 34, 1,4-Bis[5-(4-amino-3,5-dimethoxyphenyl)-2-pyridyl]hexahydro-1,4-diazepine Tetrahydrochloride] |
| 6.70 |  | 5* % | COc1cc(-c2ccc(N3CCCN(c4ccc(-c5cc(OC)c(N(C)C)c(OC)c5)cn4)CC3)nc2)cc(OC)c1N(C)C [Example 35, 1,4-Bis[5-(4-dimethylamino-3,5-dimethoxyphenyl)-2-pyridyl]hexahydro-1,4-diazepine] |
| 6.70 | 5 |  | COc1cc(-c2ccc(N3CCCN(c4ccc(-c5cc(OC)c(OC)c(OC)c5)cn4)CC3)nc2)cc(OC)c1OC [Example 26, 1,4-Bis[5-(3,4,5-trimethoxyphenyl)-2-pyridyl]hexahydro-1,4-diazepine Dimethanesulfonate] |
| 6.70 | 5 |  | COc1cc(-c2ccc(N(C)CCN(C)c3ccc(-c4cc(OC)c(OC)c(OC)c4)cn3)nc2)cc(OC)c1OC [Example 58, N,N′-Bis[5-(3,4,5-trimethoxyphenyl)-2-pyridyl]-N,N′-dimethylethylenediamine Dimethanesulfonate] |
| 7.00 |  | 5* % | COc1cc(-c2ccc(N3CCN(CCCN4CCN(c5ccc(-c6cc(OC)c(OC)c(OC)c6)cn5)CC4)CC3)nc2)cc(OC)c1OC [Example 57, 1,3-Bis[4-[5-(3,4,5-trimethoxyphenyl)-2-pyridyl]-1-piperazinyl]propane] |
